From patent publication EP1506285B1, “COMBINATIONS OF ANTI-DR5 ANTIBODIES AND ANTI-DR4 ANTIBODIES AND OTHER THERAPEUTIC AGENTS” (UAB RESEARCH FOUNDATION, priority 2001, dated 2003)
Residues, ends and D or L forms follow the SMILES beside them. *: point of attachment. Cbz = O=C(OCc1ccccc1)*; CH2F = FC*

Experiments:
[1] = target: human DR5/hIgG1 fusion protein (residues 1-180 of the extracellular portion of DR5 fused to the constant region of human IgG1; immunogen, ~50 kDa) (human) (UniProt O14763); test: ELISA on DR5-Ig, one-site binding model of non-linear regression
[2] = system: 2LMP xenografts; test: Analysis of apoptosis in xenografts, TUNEL; type: in vivo, Athymic nude mice; conditions: day 14; TRA-8 100 µg i.p. days 7, 10; adriamycin 3 mg/kg or paclitaxel 10 mg/kg days 8, 11
Procedure: One group of mice was untreated. The xenografts were dissected for the study of apoptosis on day 14 after tumor cell injection. The reason for the substantial reduction in treatment intensity compared to our standard treatment protocol was to allow adequate tumor tissue for analysis on day 14. Tunel assay for apoptosis in tumor xenografts was performed as follows. Five-micron paraffin sections of tissue were mounted on Superfrost/Plus slides and heated at 58°C for 1 h. Tissue sections were deparaffinized in three changes of xylene and rehydrated with one change of absolute ethanol, 95% ethanol, and 70% ethanol, each in 5-min increments. Then, the sections were placed in Tris-buffered saline (0.5M Tris base, 0.15 M NaCl, 0.0002% Triton X-100, pH 7.6). Apoptotic nuclei were detected using an Apop Tag Peroxidase kit (Intergen, Purchase, NY). Proteinase K (20 µg/ml in distilled deionized H2O) was added to the tissue specimens and incubated at room temperature for 15 min. Endogenous peroxidases were quenched with an aqueous solution of 3% hydrogen peroxide for 5 min. Sections were treated with an equilibration buffer for 3 0 min and then incubated with the TdT/enzyme (diluted in labeling reaction mix) for 1 h at 37°C using parafilm covers. During this incubation, the TdT enzyme binds the 3'-OH ends of DNA fragments and catalyzes the addition of digoxigenin-labeled and unlabeled deoxynucleotides. Negative controls were incubated with distilled H2O (diluted in labeling reaction mix) instead of the TdT enzyme. A stop buffer was added for 10 min at room temperature to terminate the labeling reaction. An anti-digoxigenin conjugate was added to each slide for 30 min. The chromagen 3,3' DAB was used to visualize the labeled 3' OH end of DNA fragments. The slides were then rinsed in deionized water and lightly counterstained with hematoxylin, dehydrated using graded alcohols and xylene and coverlsipped using Permount. Approximately 10 random fields were evaluated for percentage of Tunel stained and percentage of intensely stained apoptotic bodies throughout the tissue.

[3] = system: 2LMP s.c. tumors; test: TRA-8 therapy alone or with chemotherapy or radiation, breast cancer xenografts; type: in vivo, Athymic nude mice
Procedure: Athymic nude mice were injected s.c. with 3 x 10^7 2LMP cells. […] The growth of tumors was monitored over time. […] Tumor size and regression rates were determined.
Data from 6 independent experiments were analyzed by individual experiment. Treatment combinations were compared with respect to in vivo anti-tumor efficacy, i.e., inhibition of tumor growth, which was measured as three endpoints; extension of tumor doubling times, percentage of tumor regressions, and growth rates over time. The actual number of days at which the tumor doubled in surface area (product of two diameters) relative to baseline on day 7 after tumor cell injection was used in the doubling time analysis. The nonparametric Kruskal-Wallis test was used for median tumor doubling time comparisons between treatments. Fisher's exact test was used to compare the proportions of tumor regressions and relapse-free regressions across treatment groups. To determine if any combination therapy produced significant synergistic inhibition of tumor growth, i.e., more than additive, the growth curves from the serial area measurements were compared using a linear mixed model approach over the first 3 weeks after start of therapy (Lindsey, J.K. Models for Repeated Measurements, pp. 100-142, Oxford, 1993). To test for synergistic effects of the combination therapies, an interaction term was included in the model. If the interaction term was significant and the effect was inhibition of growth at a rate greater than additive then the interaction was considered synergistic.
A total of 166 animals, 10 treatment groups, and 6 independent experiments were included in the aggregate analysis. Treatment combinations were compared with respect to in vivo anti-tumor efficacy. The median tumor doubling times were analyzed using the Kruskal-Wallis test and Fisher's exact test was used to compare the proportions of tumor regressions and relapse-free regressions across treatment groups.

[4] = system: CLL B cells; test: Cytotoxicity to chronic lympholytic leukemia B cells in vitro; type: cell-based, human; conditions: five patients; compared to normal primary B cells
[5] = system: Jurkat cells; test: Cell viability / apoptosis induction in Jurkat cells; type: cell-based, human; conditions: 50 ng/ml TRA-8 overnight
Procedure: Cell viability is determined using (1) the ATPLite kit according to the manufacturer's instructions (Packard Instruments, Meriden, CT); (2) the MTT Cell proliferation/viability kit (Sigma); or (3) PI staining of dead cells and analyzed by flow cytometry. At end of culture, cells are stained with 10 µg/ml PI and PI negative cells are gated as viable cells. For analysis of condensed nuclei of hepatocytes, cells are stained with 10 ng/ml […] (Molecular Probes) and analyzed by flow cytometry.

[6] = target: T1, human DR5, full length, on cells (human, UniProt O14763 56-440); test: radioisotope-labelled TRA-8 on a breast cancer cell line, compared with soluble TRAIL
T1 construct: whole, on cells; Used for Cos-7 cells transfected with full-length human DR5 cDNA and for human cells, cell lines and tissues that carry DR5 of their own; also called cell surface DR5; TRAIL-R2

Molecule: TRA-8 anti-human DR5 monoclonal antibody
- Kd [1]: 3 nM

Molecule: COc1cccc2c1C(=O)c1c(O)c3c(c(O)c1C2=O)C[C@@](O)(C(=O)CO)C[C@@H]3O[C@H]1C[C@H](N)[C@H](O)[C@H](C)O1 [Adriamycin, doxorubicin]
- intense stained cells (TUNEL) [2]: 6%
- stained cells (TUNEL) [2]: 8%
- complete regressions of tumor ([3]; TRA-8/adriamycin experiment (Figure 25)): no complete regressions
- tumor growth compared to untreated controls ([3]; TRA-8/adriamycin experiment (Figure 25), 200 µg TRA-8, adriamycin 6 mg/kg i.v.): did not differ from controls

Molecule: soluble recombinant human TRAIL (FLAG-tagged, Alexis) (from UniProt P50591 95-281) (ligand)
- Kd [1]: 59 nM

Molecule: CC(=O)O[C@H]1C(=O)[C@@]2(C)[C@H]([C@H](OC(=O)c3ccccc3)[C@]3(O)C[C@H](OC(=O)[C@H](O)[C@@H](NC(=O)c4ccccc4)c4ccccc4)C(C)=C1C3(C)C)[C@]1(OC(C)=O)CO[C@@H]1C[C@@H]2O [Paclitaxel]
- intense stained cells (TUNEL) [2]: 2%
- stained cells (TUNEL) [2]: 7%
- complete regressions ([3]; TRA-8/paclitaxel experiment (Figure 26)): none

Molecule: Cn1cc(C2=C(c3cn(CCCN)c4ccccc34)C(=O)NC2=O)c2ccccc21 [BisVIII, Bisindolylmaleimide VIII]
- susceptibility of CLL B cells [4]: sensitive

Molecule: CC(NC(=O)C(NC(=O)OCc1ccccc1)C(C)C)C(=O)NC(CC(=O)O)C(=O)CF (stereo not drawn) [Z-VAD] (Cbz-Val-Ala-Asp-CH2F; configuration not given here)
- inhibition of TRA-8-mediated cell death by caspase inhibitor [5]: completely inhibited

B1: TRA-8 anti-human DR5 monoclonal antibody (antibody, mouse IgG1, kappa, V domains shown)
VH: EVMLVESGGGLVKPGGSLKLSCAASGFTFSSYVMSWVRQTPEKRLEWVATISSGGSYTYYPDSVKGRFTISRDNAKNTLYLQMSSLRSEDTAMYYCARRGDSMITTDYWGQGTTLTVSS
VL: DIVMTQSHKFMSTSVGDRVSITCKASQDVGTAVAWYQQKPGQSPKLLIYWASTRHTGVPDRFTGSGSGTDFTLTISNVQSEDLADYFCQQYSSYRTFGGGTKLEIKR
notes: Mouse IgG1, kappa; also called monoclonal anti-DR5 antibody (clone: TRA-8); mouse-mouse hybridoma TRA-8, ATCC PTA-1428
- fold higher binding activity than soluble TRAIL [6]: ≥ 50 fold
